The text below walks through data of patent publication US20230348442A1, “GALECTIN-3 INHIBITING 2-HYDROXYCYCLOALKANE-1-CARBAMOYL DERIVATIVES” (Idorsia Pharmaceuticals Ltd, priority 2020, published 2023).

human Gal-3 (hGal-3), sequence (P17931 whole entry): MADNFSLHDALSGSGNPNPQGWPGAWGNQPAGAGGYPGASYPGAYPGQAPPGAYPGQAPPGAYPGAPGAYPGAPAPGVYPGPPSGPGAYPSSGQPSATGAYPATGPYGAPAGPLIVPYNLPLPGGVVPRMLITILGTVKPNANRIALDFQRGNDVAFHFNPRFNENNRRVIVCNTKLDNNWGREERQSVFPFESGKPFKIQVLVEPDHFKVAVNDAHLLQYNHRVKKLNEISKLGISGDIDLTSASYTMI

The experiment addresses human Gal-3 (hGal-3) (Homo sapiens (Human), UniProt P17931). Nature of the experiment: competitive binding assay: binding of biotinylated hGal-3 to microplate-adsorbed asialofetuin (ASF), spectrophotometric. To be noted: Activity on hGal-3; mean values of several measurements. In outline: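 For hGal-1, a variant with all six cysteines replaced by serines is preferred. Either galectin, biotinylated at 300-1000 ng/mL, competes with compound for microplate-bound ASF over 3 h at 4° C; peroxidase/ABTS detection gives IC50, averaged.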
What is called IC50 is the concentration that gives 50% inhibition. `CO[C@@H]1[C@@H](n2cc(-c3cccc(F)c3)nn2)[C@@H](O)[C@@H](CO)O[C@H]1C(=O)N(c1cc(Br)cc(C#N)c1)[C@H]1CCC[C@@H]1O` [Example 1.15.5, (2R,3R,4S,5R,6R)-N-(3-bromo-5-cyanophenyl)-4-(4-(3-fluorophenyl)-1H-1,2,3-triazol-1-yl)-5-hydroxy-N-((1S,2S)-2-hydroxycyclopentyl)-6-(hydroxymethyl)-3-methoxytetrahydro-2H-pyran-2-carboxamide] showed a half-maximal inhibitory concentration (IC50) of 66 nM.
To `CO[C@@H]1[C@@H](n2cc(-c3cccc(F)c3)nn2)[C@@H](O)[C@@H](CO)O[C@H]1C(=O)N(c1cc(Br)cc(C#N)c1)[C@@H]1CCC[C@H]1O` [Example 1.15.5R, (2R,3R,4S,5R,6R)-N-(3-bromo-5-cyanophenyl)-4-(4-(3-fluorophenyl)-1H-1,2,3-triazol-1-yl)-5-hydroxy-N-((1R,2R)-2-hydroxycyclopentyl)-6-(hydroxymethyl)-3-methoxytetrahydro-2H-pyran-2-carboxamide] belongs 612 nM; to `CO[C@@H]1[C@@H](n2cc(-c3ccc(C#N)c(F)c3)nn2)[C@@H](O)[C@@H](CO)O[C@H]1C(=O)N(c1cc(Cl)cc(C#N)c1)[C@H]1CCC[C@@H]1O` [Example 1.16.4, (2R,3R,4S,5R,6R)-N-(3-chloro-5-cyanophenyl)-4-(4-(4-cyano-3-fluorophenyl)-1H-1,2,3-triazol-1-yl)-5-hydroxy-N-((1S,2S)-2-hydroxycyclopentyl)-6-(hydroxymethyl)-3-methoxytetrahydro-2H-pyran-2-carboxamide], 102 nM; to `CO[C@@H]1[C@@H](n2cc(-c3ccc(C#N)c(F)c3)nn2)[C@@H](O)[C@@H](CO)O[C@H]1C(=O)N(c1cc(Cl)cc(C#N)c1)[C@@H]1CCC[C@H]1O` [Example 1.16.4R, (2R,3R,4S,5R,6R)-N-(3-chloro-5-cyanophenyl)-4-(4-(4-cyano-3-fluorophenyl)-1H-1,2,3-triazol-1-yl)-5-hydroxy-N-((1R,2R)-2-hydroxycyclopentyl)-6-(hydroxymethyl)-3-methoxytetrahydro-2H-pyran-2-carboxamide], 978 nM.
`CO[C@@H]1[C@@H](n2cc(-c3ccc(C#N)c(F)c3)nn2)[C@@H](O)[C@@H](CO)O[C@H]1C(=O)N(c1cc(Br)cc(C#N)c1)[C@H]1CCC[C@@H]1O` [Example 1.16.5, (2R,3R,4S,5R,6R)-N-(3-bromo-5-cyanophenyl)-4-(4-(4-cyano-3-fluorophenyl)-1H-1,2,3-triazol-1-yl)-5-hydroxy-N-((1S,2S)-2-hydroxycyclopentyl)-6-(hydroxymethyl)-3-methoxytetrahydro-2H-pyran-2-carboxamide]: the half-maximal inhibitory concentration (IC50) was 62 nM.
`CO[C@@H]1[C@@H](n2cc(-c3ccc(C#N)c(F)c3)nn2)[C@@H](O)[C@@H](CO)O[C@H]1C(=O)N(c1cc(Br)cc(C#N)c1)[C@@H]1CCC[C@H]1O` [Example 1.16.5R, (2R,3R,4S,5R,6R)-N-(3-bromo-5-cyanophenyl)-4-(4-(4-cyano-3-fluorophenyl)-1H-1,2,3-triazol-1-yl)-5-hydroxy-N-((1R,2R)-2-hydroxycyclopentyl)-6-(hydroxymethyl)-3-methoxytetrahydro-2H-pyran-2-carboxamide] had an IC50 of 729 nM.
To `CO[C@@H]1[C@@H](n2cc(-c3ccc(C#N)c(F)c3)nn2)[C@@H](O)[C@@H](CO)O[C@H]1C(=O)N(c1cc(C)cc(C#N)c1)[C@H]1CCC[C@@H]1O` [Example 1.16.8, (2R,3R,4S,5R,6R)-4-(4-(4-cyano-3-fluorophenyl)-1H-1,2,3-triazol-1-yl)-N-(3-cyano-5-methylphenyl)-5-hydroxy-N-((1S,2S)-2-hydroxycyclopentyl)-6-(hydroxymethyl)-3-methoxytetrahydro-2H-pyran-2-carboxamide] belongs 163 nM.
To `CO[C@@H]1[C@@H](n2cc(-c3ccc(C#N)c(F)c3)nn2)[C@@H](O)[C@@H](CO)O[C@H]1C(=O)N(c1cc(C)cc(C#N)c1)[C@@H]1CCC[C@H]1O` [Example 1.16.8R, (2R,3R,4S,5R,6R)-4-(4-(4-cyano-3-fluorophenyl)-1H-1,2,3-triazol-1-yl)-N-(3-cyano-5-methylphenyl)-5-hydroxy-N-((1R,2R)-2-hydroxycyclopentyl)-6-(hydroxymethyl)-3-methoxytetrahydro-2H-pyran-2-carboxamide] belongs 1260 nM; to `COc1cc(C#N)cc(N(C(=O)[C@@H]2O[C@H](CO)[C@H](O)[C@H](n3cc(-c4ccc(C#N)c(F)c4)nn3)[C@H]2OC)[C@H]2CCC[C@@H]2O)c1` [Example 1.16.9, (2R,3R,4S,5R,6R)-4-(4-(4-cyano-3-fluorophenyl)-1H-1,2,3-triazol-1-yl)-N-(3-cyano-5-methoxyphenyl)-5-hydroxy-N-((1S,2S)-2-hydroxycyclopentyl)-6-(hydroxymethyl)-3-methoxytetrahydro-2H-pyran-2-carboxamide], 256 nM; to `COc1cc(C#N)cc(N(C(=O)[C@@H]2O[C@H](CO)[C@H](O)[C@H](n3cc(-c4ccc(C#N)c(F)c4)nn3)[C@H]2OC)[C@@H]2CCC[C@H]2O)c1` [Example 1.16.9R, (2R,3R,4S,5R,6R)-4-(4-(4-cyano-3-fluorophenyl)-1H-1,2,3-triazol-1-yl)-N-(3-cyano-5-methoxyphenyl)-5-hydroxy-N-((1R,2R)-2-hydroxycyclopentyl)-6-(hydroxymethyl)-3-methoxytetrahydro-2H-pyran-2-carboxamide], 1460 nM.
In the case of `CO[C@@H]1[C@@H](n2cc(-c3cc(F)c(Cl)c(Cl)c3)nn2)[C@@H](O)[C@@H](CO)O[C@H]1C(=O)N(c1cc(Cl)cc(C#N)c1)[C@H]1CCC[C@@H]1O` [Example 1.17.4, (2R,3R,4S,5R,6R)-N-(3-chloro-5-cyanophenyl)-4-(4-(3,4-dichloro-5-fluorophenyl)-1H-1,2,3-triazol-1-yl)-5-hydroxy-N-((1S,2S)-2-hydroxycyclopentyl)-6-(hydroxymethyl)-3-methoxytetrahydro-2H-pyran-2-carboxamide] it was 29.7 nM; in that of `CO[C@@H]1[C@@H](n2cc(-c3cc(F)c(Cl)c(Cl)c3)nn2)[C@@H](O)[C@@H](CO)O[C@H]1C(=O)N(c1cc(Cl)cc(C#N)c1)[C@@H]1CCC[C@H]1O` [Example 1.17.4R, (2R,3R,4S,5R,6R)-N-(3-chloro-5-cyanophenyl)-4-(4-(3,4-dichloro-5-fluorophenyl)-1H-1,2,3-triazol-1-yl)-5-hydroxy-N-((1R,2R)-2-hydroxycyclopentyl)-6-(hydroxymethyl)-3-methoxytetrahydro-2H-pyran-2-carboxamide], 238 nM.
`CO[C@@H]1[C@@H](n2cc(-c3cc(F)c(Cl)c(Cl)c3)nn2)[C@@H](O)[C@@H](CO)O[C@H]1C(=O)N(c1cc(Br)cc(C#N)c1)[C@H]1CCC[C@@H]1O` [Example 1.17.5, (2R,3R,4S,5R,6R)-N-(3-bromo-5-cyanophenyl)-4-(4-(3,4-dichloro-5-fluorophenyl)-1H-1,2,3-triazol-1-yl)-5-hydroxy-N-((1S,2S)-2-hydroxycyclopentyl)-6-(hydroxymethyl)-3-methoxytetrahydro-2H-pyran-2-carboxamide] displayed a concentration for half-maximal inhibition (IC50) of 46.3 nM.
In the case of `CO[C@@H]1[C@@H](n2cc(-c3ccc(Cl)cc3)nn2)[C@@H](O)[C@@H](CO)O[C@H]1C(=O)N(c1cc(Cl)cc(C#N)c1)[C@H]1CCC[C@@H]1O` [Example 1.18.4, (2R,3R,4S,5R,6R)-N-(3-chloro-5-cyanophenyl)-4-(4-(4-chlorophenyl)-1H-1,2,3-triazol-1-yl)-5-hydroxy-N-((1S,2S)-2-hydroxycyclopentyl)-6-(hydroxymethyl)-3-methoxytetrahydro-2H-pyran-2-carboxamide] it was 90.7 nM; in that of `CO[C@@H]1[C@@H](n2cc(-c3ccc(Cl)cc3)nn2)[C@@H](O)[C@@H](CO)O[C@H]1C(=O)N(c1cc(Cl)cc(C#N)c1)[C@@H]1CCC[C@H]1O` [Example 1.18.4R, (2R,3R,4S,5R,6R)-N-(3-chloro-5-cyanophenyl)-4-(4-(4-chlorophenyl)-1H-1,2,3-triazol-1-yl)-5-hydroxy-N-((1R,2R)-2-hydroxycyclopentyl)-6-(hydroxymethyl)-3-methoxytetrahydro-2H-pyran-2-carboxamide], 536 nM.
The compound `CO[C@@H]1[C@@H](n2cc(-c3ccc(Br)cc3)nn2)[C@@H](O)[C@@H](CO)O[C@H]1C(=O)N(c1cc(Cl)cc(C#N)c1)[C@H]1CCC[C@@H]1O` [Example 1.19.4, (2R,3R,4S,5R,6R)-4-(4-(4-bromophenyl)-1H-1,2,3-triazol-1-yl)-N-(3-chloro-5-cyanophenyl)-5-hydroxy-N-((1S,2S)-2-hydroxycyclopentyl)-6-(hydroxymethyl)-3-methoxytetrahydro-2H-pyran-2-carboxamide] registered a half-inhibitory concentration (IC50) of 163 nM.
In the case of `CO[C@@H]1[C@@H](n2cc(-c3ccc(Br)cc3)nn2)[C@@H](O)[C@@H](CO)O[C@H]1C(=O)N(c1cc(Cl)cc(C#N)c1)[C@@H]1CCC[C@H]1O` [Example 1.19.4R, (2R,3R,4S,5R,6R)-4-(4-(4-bromophenyl)-1H-1,2,3-triazol-1-yl)-N-(3-chloro-5-cyanophenyl)-5-hydroxy-N-((1R,2R)-2-hydroxycyclopentyl)-6-(hydroxymethyl)-3-methoxytetrahydro-2H-pyran-2-carboxamide] it was 312 nM; in that of `CO[C@@H]1[C@@H](n2cc(-c3ccc(F)c(F)c3F)nn2)[C@@H](O)[C@@H](CO)O[C@H]1C(=O)N(c1cc(Cl)cc(C#N)c1)[C@H]1CCC[C@@H]1O` [Example 1.20.4, (2R,3R,4S,5R,6R)-N-(3-chloro-5-cyanophenyl)-5-hydroxy-N-((1S,2S)-2-hydroxycyclopentyl)-6-(hydroxymethyl)-3-methoxy-4-(4-(2,3,4-trifluorophenyl)-1H-1,2,3-triazol-1-yl)tetrahydro-2H-pyran-2-carboxamide], 25.7 nM; in that of `CO[C@@H]1[C@@H](n2cc(-c3ccc(F)c(F)c3F)nn2)[C@@H](O)[C@@H](CO)O[C@H]1C(=O)N(c1cc(Br)cc(C#N)c1)[C@H]1CCC[C@@H]1O` [Example 1.20.5, (2R,3R,4S,5R,6R)-N-(3-bromo-5-cyanophenyl)-5-hydroxy-N-((1S,2S)-2-hydroxycyclopentyl)-6-(hydroxymethyl)-3-methoxy-4-(4-(2,3,4-trifluorophenyl)-1H-1,2,3-triazol-1-yl)tetrahydro-2H-pyran-2-carboxamide], 28.7 nM.
